According to patent US12358915B2, “METTL3 inhibitory compounds” (STORM THERAPEUTICS LTD., priority 2019, dated 2025):
pIC50: −log10 of the molar value. Like-named read-outs stand apart in the source and are kept apart here.

Columns and labels:
Caov-3 cells = assay: Caov3 CTG assay - proliferation assay; assay type: cell-based; conditions: Homo sapiens, 120 hours treatment, 30 μM top concentration, CellTiter-Glo, geometric mean, read-out: CTG Caov3 cells IC50 GEOMEAN
Experimental: Upon treatment, Coav-3 cells were incubated for 10 min at RT with the CellTiter-Glo reagent (G7571, Promega). Measurement of the luminescence signal was performed on a microplate reader (Ensight, PerkinElmer).

METTL3/14 = target: T1, METTL3/14 (Homo sapiens, UniProt Q86U44); assay: METTL3/14 methyltransferase assay (METTL3_14 RFMS, RapidFire mass spectrometry); assay type: biochemical; conditions: read-out: METTL3_14 RFMS IC50;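 note: recombinant His-tagged METTL3 with FLAG-tagged METTL14 from baculovirus, SAH product quantified by mass spectrometry against isotope-labelled internal standards, 60 min at room temperature, scaled between no-RNA and DMSO-only wells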
T1 construct: The enzyme used was full-length his-tagged METTL3; His; made in house
T1 sequence (Q86U44 whole entry): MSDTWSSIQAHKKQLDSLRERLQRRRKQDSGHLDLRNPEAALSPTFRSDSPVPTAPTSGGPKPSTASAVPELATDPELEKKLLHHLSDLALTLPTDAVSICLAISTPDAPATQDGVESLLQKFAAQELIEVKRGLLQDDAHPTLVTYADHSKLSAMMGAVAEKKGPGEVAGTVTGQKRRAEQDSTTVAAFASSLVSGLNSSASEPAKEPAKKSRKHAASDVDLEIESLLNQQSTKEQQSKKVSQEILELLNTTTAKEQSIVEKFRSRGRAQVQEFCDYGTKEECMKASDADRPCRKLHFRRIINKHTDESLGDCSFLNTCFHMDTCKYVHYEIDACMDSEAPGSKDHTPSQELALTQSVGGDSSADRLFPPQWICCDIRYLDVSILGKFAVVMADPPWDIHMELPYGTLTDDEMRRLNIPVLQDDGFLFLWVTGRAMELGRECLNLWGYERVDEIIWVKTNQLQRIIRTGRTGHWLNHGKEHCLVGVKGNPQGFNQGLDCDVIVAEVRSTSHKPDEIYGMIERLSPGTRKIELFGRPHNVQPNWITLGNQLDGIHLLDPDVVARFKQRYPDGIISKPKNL
T1 sequence (Q9HCE5 whole entry partner): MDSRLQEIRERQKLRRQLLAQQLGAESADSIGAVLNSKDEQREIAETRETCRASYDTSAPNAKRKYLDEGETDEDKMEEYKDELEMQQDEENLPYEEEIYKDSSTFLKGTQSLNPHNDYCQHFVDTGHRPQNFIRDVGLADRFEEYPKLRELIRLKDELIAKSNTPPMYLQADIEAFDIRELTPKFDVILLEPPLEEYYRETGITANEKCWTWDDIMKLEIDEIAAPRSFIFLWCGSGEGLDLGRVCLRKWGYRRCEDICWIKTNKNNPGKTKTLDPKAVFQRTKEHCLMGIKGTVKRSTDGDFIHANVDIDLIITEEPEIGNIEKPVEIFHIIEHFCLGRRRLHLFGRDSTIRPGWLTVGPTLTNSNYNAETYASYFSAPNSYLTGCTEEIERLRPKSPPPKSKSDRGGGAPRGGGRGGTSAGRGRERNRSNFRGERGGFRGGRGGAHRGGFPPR

MOLM-13 cells = assay: MOLM13 CTG - analysis of cell proliferation (Cell Titre Glo); assay type: cell-based; conditions: Homo sapiens, geometric mean, read-out: CTG MOLM13 cells IC50 GEOMEAN
Experimental: MOLM-13 or MOLM-14 cells were plated, in suspension, in 24 well tissue culture plates at final concentration of 200,000/ml, with or without 50 ng/ml IFNγ. […] Cells were incubated for 4 days at 37° C. at which point 600 μl of cell suspension was removed for Mass spectrometry analysis of m6A. 600 μl of fresh media containing the appropriate concentration of METTL3 inhibitor/IFNγ was added to remaining cell suspensions. Cells where then cultured for a further 7 days, cell suspension was sampled for analysis of proliferation and Cell surface markers periodically.
At regular time points (4, 5, 6 &7) days cells were mixed to maintain a homogenous cell suspension. 25 μl of this cell suspension was removed and added to a white 384 well plate, 25 μl of Cell Titre Glo reagent (Promega) was added, and incubated for 10 mins at room temperature before measurement of luminescence intensity, as per the manufacturers instructions.

[1] = 5 nM METTL3/14, 0.2 μM RNA substrate, 0.5 μM SAM, lower limit of the assay IC50=5 nM, Compounds 266-351
[2] = 5 nM METTL3/14, 0.2 μM RNA substrate, 0.5 μM SAM, lower limit of the assay IC50=5 nM, Compounds 63-265

pIC50 (METTL3/14; [1]) | pIC50 (MOLM-13 cells) | pIC50 (METTL3/14; [2]) | pIC50 (METTL3/14) | Compound | pIC50 (Caov-3 cells)
8.21 | 5.93 |  |  | COc1ccc2[nH]ncc2c1-c1cn(Cc2cn3cc(CNCC4CCC4)ccc3n2)nn1 [Example 271, N-(cyclobutylmethyl)-1-[2-[[4-(5-methoxy-1H-indazol-4-yl)triazol-1-yl]methyl]imidazo[1,2-a]pyridin-6-yl]methanamine] | 6.25
8.24 | 5.79 |  |  | c1cc(-c2cn(Cc3cn4cc(CNCC5CCC5)ccc4n3)nn2)c2cn[nH]c2c1 [Example 327, N-(cyclobutylmethyl)-1-[2-[[4-(1H-indazol-4-yl)triazol-1-yl]methyl]imidazo[1,2-a]pyridin-6-yl]methanamine] | 6.24
8.21 | 6.18 |  |  | O=C(NCc1cn2cc(CNCC34CC(F)(C3)C4)ccc2n1)c1cc(=O)n2ccccc2n1 [Compound 276, N-[[6-[[(3-fluoro-1-bicyclo[1.1.1]pentanyl)methylamino]methyl]imidazo[1,2-a]pyridin-2-yl]methyl]-4-oxo-pyrido[1,2-a]pyrimidine-2-carboxamide] | 6.61
7.42 | 4.95 |  |  | O=C(NCc1cn2cc(C(Cc3ccccc3)NCC3CCC3)ccc2n1)c1cc(=O)n2ccccc2n1 (stereo not shown) [Example 313, N-[[6-[1-(cyclobutylmethylamino)-2-phenyl-ethyl]imidazo[1,2-a]pyridin-2-yl]methyl]-4-oxo-pyrido[1,2-a]pyrimidine-2-carboxamide] | 
 | 4.93 | 7.54 |  | O=C(NCc1cn2cc(CCNC3CCCCC3)ccc2n1)c1cc(=O)n2ccccc2n1 [Compound 236, N-({6-[2-(cyclohexylamino)ethyl]imidazo[1,2-a]pyridin-2-yl}methyl)-4-oxo-4H-pyrido[1,2-a]pyrimidine-2-carboxamide] | 
7.97 | 5.27 |  |  | COc1ccc2[nH]ncc2c1-c1cn(Cc2cn3cc(CNCC4(O)CCC4)ccc3n2)nn1 [Example 268, 1-[[[2-[[4-(5-methoxy-1H-indazol-4-yl)triazol-1-yl]methyl]imidazo[1,2-a]pyridin-6-yl]methylamino]methyl]cyclobutanol] | 
7.94 | 5.13 |  |  | O=C(NCc1cn2cc(CNCC3(O)CCCC3)ccc2n1)c1cc(=O)n2ccccc2n1 [Compound 284, N-[[6-[[(1-hydroxycyclopentyl)methylamino]methyl]imidazo[1,2-a]pyridin-2-yl]methyl]-4-oxo-pyrido[1,2-a]pyrimidine-2-carboxamide] | 
7.72 | 5.43 |  |  | c1cc2nc(Cn3cc(-c4cc(N5CCOCC5)cc5[nH]ncc45)nn3)cn2cc1CNCC1CCC1 [Example 311, N-(cyclobutylmethyl)-1-[2-[[4-(6-morpholino-1H-indazol-4-yl)triazol-1-yl]methyl]imidazo[1,2-a]pyridin-6-yl]methanamine] | 
7.86 | 5.14 |  |  | O=C(NCc1cn2cc(CNCC3(O)CCC3)ccc2n1)c1cc(=O)n2ccccc2n1 [Compound 288, N-[[6-[[(1-hydroxycyclobutyl)methylamino]methyl]imidazo[1,2-a]pyridin-2-yl]methyl]-4-oxo-pyrido[1,2-a]pyrimidine-2-carboxamide] | 
 | 6.19 | 8.17 |  | CC(C)(C)CNCc1ccc2nc(Cn3cc(-c4cc(Br)cc5[nH]ncc45)nn3)cn2c1 [Example 225, [(2-{[4-(6-bromo-1H-indazol-4-yl)-1H-1,2,3-triazol-1-yl]methyl}imidazo[1,2-a]pyridin-6-yl)methyl](2,2-dimethylpropyl)amine] | 
7.56 | ≤ 4.52 |  |  | O=C(NCc1cn2cc(CNCC3CC4(CC4)C3)ccc2n1)c1cc(=O)n2ccccc2n1 [Compound 278, 4-oxo-N-[[6-[(spiro[2.3]hexan-5-ylmethylamino)methyl]imidazo[1,2-a]pyridin-2-yl]methyl]pyrido[1,2-a]pyrimidine-2-carboxamide] | 
7.84 | 5.12 |  |  | c1cc2[nH]ncc2c(-c2cn(Cc3cn4cc(CNCC5CCCCC5)ccc4n3)nn2)n1 [Example 325, N-(cyclohexylmethyl)-1-[2-[[4-(1H-pyrazolo[4,3-c]pyridin-4-yl)triazol-1-yl]methyl]imidazo[1,2-a]pyridin-6-yl]methanamine] | 
7.82 | 5.13 |  |  | CCC(C)CNCc1ccc2nc(CNC(=O)c3cc(=O)n4ccccc4n3)cn2c1 (stereo not shown) [Compound 285, N-[[6-[(2-methylbutylamino)methyl]imidazo[1,2-a]pyridin-2-yl]methyl]-4-oxo-pyrido[1,2-a]pyrimidine-2-carboxamide] | 
 | 4.95 |  | ≥ 8.37 | Oc1cc(-c2cn(Cc3cn4cc(CNCC5CCC5)ccc4n3)nn2)c2cn[nH]c2c1 [Example 266, 4-[1-[[6-[(cyclobutylmethylamino)methyl]imidazo[1,2-a]pyridin-2-yl]methyl]triazol-4-yl]-1H-indazol-6-ol] | 
 | 5.55 | 6.61 |  | CN(Cc1ccc2nc(CNC(=O)c3cc(=O)n4ccccc4n3)cn2c1)CC1CCCCC1 [Compound 114, N-[(6-{[(cyclohexyl-methyl)(methyl)amino]methyl}imidazo [1,2-a]pyridin-2-yl)methyl]-4-oxo-4H-pyrido [1,2-a]pyrimidine-2-carboxamide] | 
 | 5.17 | 7.86 |  | O=C(NCc1cn2cc(CNCCC3CC3)ccc2n1)c1cc(=O)n2ccccc2n1 [Compound 103, N-[(6-{[(2-cyclopropylethyl)amino]methyl}imidazo[1,2-a]pyridin-2-yl)methyl]-4-oxo-4H-pyrido[1,2-a]pyrimidine-2-carboxamide] | 
 | 5.55 | 6.68 |  | OCc1ccc2nc(Cn3cc(-c4cc(Br)cc5[nH]ncc45)nn3)cn2c1 [Example 253, (2-{[4-(6-bromo-1H-indazol-4-yl)-1H-1,2,3-triazol-1-yl]methyl}imidazo[1,2-a]pyridin-6-yl)methanol] | 
 | ≤ 4.52 |  | 5.00 | CC(C)(C)CNCc1ccc2nc(Cn3cc(-c4ccc5[nH]ncc5c4)nn3)cn2c1 [Example 254, (2,2-dimethylpropyl)[(2-{[4-(1H-indazol-5-yl)-1H-1,2,3-triazol-1-yl]methyl}imidazo[1,2-a]pyridin-6-yl)methyl]amine] | 
8.05 | 5.48 |  |  | c1cc2[nH]ncc2c(-c2cn(Cc3cn4cc(CNCC5CCC5)ccc4n3)nn2)n1 [Example 324, N-(cyclobutylmethyl)-1-[2-[[4-(1H-pyrazolo[4,3-c]pyridin-4-yl)triazol-1-yl]methyl]imidazo[1,2-a]pyridin-6-yl]methanamine] | 
 | 5.02 | 7.59 |  | CC(NCC1CCCCC1)c1ccc2nc(Cn3cc(-c4cccc5[nH]ncc45)nn3)cn2c1 (stereo not shown) [Example 255] | 
 | 5.33 | 7.58 |  | O=C(NCc1cn2cc(CNCCC3CC3)ccc2n1)c1cc(=O)c2ccccc2o1 [Compound 218] | 
7.16 | ≤ 4.52 |  |  | CC(C)(O)CNCc1ccc2nc(CNC(=O)c3cc(=O)n4ccccc4n3)cn2c1 [Compound 287, N-[[6-[[(2-hydroxy-2-methyl-propyl)amino]methyl]imidazo[1,2-a]pyridin-2-yl]methyl]-4-oxo-pyrido[1,2-a]pyrimidine-2-carboxamide] | 
 | 6.44 |  | ≥ 8.35 | Brc1cc(-c2cn(Cc3cn4cc(CNCC5CCC5)ccc4n3)nn2)c2cn[nH]c2c1 [Example 296, 1-[2-[[4-(6-bromo-1H-indazol-4-yl)triazol-1-yl]methyl]imidazo[1,2-a]pyridin-6-yl]-N-(cyclobutylmethyl)methanamine] | 
